Source: US20240400536A1, “IDEBENONE DERIVATIVES AND THEIR USE IN TREATING PLANTS” (MITORX THERAPEUTICS LIMITED, priority 2021, published 2024)

Assays:
Toxicity (TC50) = assay type: cell-based; details: mouse, b.End3 cells
b.End3 cells [1] = test: Hyperglycaemia-induced mitochondrial dysfunction: mitochondrial membrane potential restore; assay type: cell-based; details: compound added on day 8 for two days
Description: Moreover, in cardiovascular diseases such as hypertension and diabetes a loss of endothelial function and cell death were observed [Poredos et al, 2021].
In order to induce hyperglycemia in b.End3 cells, a literature reported protocol Lorenzi et al 1985; Qu et al 2014] was followed. After trypsinisation, cells were diluted with supplemented DMEM (approximately 2 ml per flask) and consequently, cells from 3 or 4 different flasks were transferred in a 15 ml sterile conical centrifuge tube and centrifuged for 5 minutes, in order to separate the cells from the medium. Following that, the supernatant medium was removed and the cells were gently re-suspended and mixed with approximately 4 ml of fresh supplemented DMEM. 20 μl of this solution was added to 40 μl of trypan blue and 10 μl of the final solution was loaded onto a cell counting slide dual-chamber. Trypan blue allows to distinguish between live and dead cells. Indeed it is impermeable in live cells, while it is absorbed by dead cells. The number of cells per ml was measured using an automated cell counter. Commonly, the value found was […] and consequently, the cell solution was diluted, in order to obtain a concentration of 20,000 cells/well in the minimum volume necessary to fill a 96-well plate (200 μl/well, ≈13 ml for one plate, since the two external columns and rows were loaded with cell-free medium because they are susceptible to evaporation thus, the cell medium in these wells prevented the external cell-containing wells from evaporating). Cells were cultured overnight in a humidified incubator, in order to allow them to attach to the plate surface. Afterwards, the medium was removed (a part of the plate was kept with normal glucose DMEM as a […]) and supplemented high-glucose DMEM was added. Cells were cultured for 8 days since, in previous studies, it was determined that this is the minimum amount of time required to induce extensive mitochondrial dysfunction, such as excessive oxidant production and mitochondrial membrane hyperpolarisation Lorenzi et al 1985; Qu et al 2014]
On day 8, 10 μl/well (1/20 dilution factor) of a solution of an H2S donor or of a control compound or a PBS vehicle solution (with calcium and magnesium salts and 10% DMSO) was administered to cells. The final concentration of DMSO in cells was 0.5%: higher DMSO doses may be toxic for the cells. The cells were incubated for a further two days in the presence of the compound and after ten days of hyperglycaemia exposure, the amount of mitochondrial oxidant and mitochondrial membrane hyperpolarisation were determined. Noticeably in this procedure, in order to evaluate the cytoprotective activity of the novel compounds, the drugs were added only after the mitochondrial dysfunction in cells had already occurred. The protocol described is summarised in the scheme below:
On day 0, cells (20,000 cell/ml) were plated in a 96-well plate. Cells were cultured overnight at 37° C. On day 1, supplemented DMEM was removed and high-glucose supplemented DMEM was added. On day 8, an H2S donor compound (Examples 1-7), a control compound or altematively a vehicle solution was added to cells. On day 10, mitochondrial dysfunction were determined Lorenzi et al 1985; Qu et al 2014].

[2] = cited from earlier work
b.End3 cells [3] = test: Toxicity (TC50); assay type: cell-based
endothelial cells = details: cited from earlier work
b.End3 cells [4] = test: Hyperglycaemia-induced mitochondrial dysfunction: mitochondrial superoxide (ROS) production, Mitosox Red; assay type: cell-based; details: 10 days hyperglycaemia, compound added on day 8 for two days
Description: In order to induce hyperglycemia in b.End3 cells, a literature reported protocol Lorenzi et al 1985; Qu et al 2014] was followed. After trypsinisation, cells were diluted with supplemented DMEM (approximately 2 ml per flask) and consequently, cells from 3 or 4 different flasks were transferred in a 15 ml sterile conical centrifuge tube and centrifuged for 5 minutes, in order to separate the cells from the medium. Following that, the supernatant medium was removed and the cells were gently re-suspended and mixed with approximately 4 ml of fresh supplemented DMEM. 20 μl of this solution was added to 40 μl of trypan blue and 10 μl of the final solution was loaded onto a cell counting slide dual-chamber. Trypan blue allows to distinguish between live and dead cells. Indeed it is impermeable in live cells, while it is absorbed by dead cells. The number of cells per ml was measured using an automated cell counter. […] Cells were cultured for 8 days since, in previous studies, it was determined that this is the minimum amount of time required to induce extensive mitochondrial dysfunction, such as excessive oxidant production and mitochondrial membrane hyperpolarisation Lorenzi et al 1985; Qu et al 2014]
On day 8, 10 μl/well (1/20 dilution factor) of a solution of an H2S donor or of a control compound or a PBS vehicle solution (with calcium and magnesium salts and 10% DMSO) was administered to cells. […] The cells were incubated for a further two days in the presence of the compound and after ten days of hyperglycaemia exposure, the amount of mitochondrial oxidant and mitochondrial membrane hyperpolarisation were determined. […]
On day 0, cells (20,000 cell/ml) were plated in a 96-well plate. […] On day 10, mitochondrial dysfunction were determined Lorenzi et al 1985; Qu et al 2014]. […]

C. elegans = test: Worm screening: mitochondrial network imaging in ageing C. elegans; assay type: in vivo; details: for reduction of networked mitochondria caused by aging: FIG. 2; for damage caused to mitochondrial network in aging: FIG. 3
Description: C. elegans strains were cultured at 20° C. on Petri dishes containing nematode growth medium (NGM) agar and a lawn of Escherichia coli OP50, unless stated otherwise. Animals for the study were age-synchronized by gravity synchronization from the L1 stage and allowed to grow to the desired day of adulthood. The C. elegans strains used in this study were Bristol strain N2 (WT) provided by the Caenorhabditis Genetics Center.
Mitochondrial imaging was used in day 1 adults, with or without treatment, to examine the mitochondrial network. Worms were cultured on test compounds as described. Approximately 20 day 1 adults were picked into 20 μL of M9 buffer on a microscope slide with a coverslip applied. Worms were imaged at 40× magnification using a Nikon Eclipse 50i microscope. The protocol used was as described by Oh and Kim. Briefly animals were assessed at day 4 and day 8 of adulthood, where the number of dead muscle cells was determined by quantifying the number of muscle cells that had lost their distinct circular nuclear GFP signal. Approximately 30 animals were picked into 20 μL of M9 buffer on a microscope slide with a coverslip applied. Worms were imaged at 10× magnification by using a Nikon Eclipse 50i microscope.

[5] = tested on: senescent primary human lung fibroblasts; test: Cellular bioenergetics (Seahorse OCR) in senescent primary human lung fibroblasts; assay type: cell-based; details: FIG. 4; compounds 0-300 nM; compared to the control (SIP cells without compound)
Description: Human primary lung fibroblasts were isolated from healthy volunteers and cultured in DMEM supplemented with 10% fetal calf serum and 1% pen/strep and […] L-glutamine, at 37° C., 5% CO2. To induce senescence, cells were seeded at a density of 50,000 cells per well in 250 μl of cell culture media onto Seahorse V7 plates and treated daily with fresh cell culture media containing […] H2O2 for 5 days, cells were then cultured with normal medium for a further 9 days. Senescence was confirmed by microscopy and staining for the senescence marker, senescence-associated-β-galactosidase (SA-βgal; Cell Signalling kit #9860). Cells were then treated with compounds (0-300 nM) for a further 24 h (controls are *SIP cells without compounds) and after this time, cellular bioenergetics determined using a Seahorse XFe24 extracellular flux analyser performed as described below. * SIP-senescence-induced phenotype
For the mitochondrial stress and glycolytic stress tests (Agilent, UK)Seahorse XFe24 sensor cartridges were hydrated with Seahorse XF calibrant solution and maintained at 37° C. in a non-CO2 incubator overnight. […] After incubation, plates were loaded onto Seahorse XFe24 Analyser and basal oxygen consumption rate (OCR) measured for 3 cycles. […] Extracellular acidification rate (ECAR) and Oxygen consumption rate (OCR) were measured for 3 baseline cycles and injection strategy initiated. […]

Compound | CC50 (Toxicity (TC50)) [µM] | IC50 (b.End3 cells [1]; BEND3, 10 days hyperglycaemia) [nM] | IC25 (Mitochondrial ROS level restore) (b.End3 cells [4]) [nM] | reduction of networked mitochondria caused by aging (C. elegans) | damage caused to mitochondrial network in aging (C. elegans) | other results
COC1=C(OC)C(=O)C(CCCCCCCCCC(=O)Oc2ccc(C(N)=S)cc2)=C(C)C1=O [Example 4, 4-carbamothioylphenyl 10-(4,5-dimethoxy-2-methyl-3,6-dioxocyclohexa-1,4-dien-1-yl)decanoate] | 100 | 1 | – | – | – | –
O=C(CCCCCCCCC[P+](c1ccccc1)(c1ccccc1)c1ccccc1)Oc1ccc(-c2cc(=S)ss2)cc1.[Br-] [AP39] | – | – | 10 | – | – | aqueous solubility [2]: poor; CC50 (b.End3 cells [3]): 8 µM; ATP production (endothelial cells; endothelial cells): increase; protein persulfidation (endothelial cells; inside the mitochondria): increase; intracellular levels of H2S (endothelial cells; mainly inside the mitochondria, concentration-dependent): increase; IC50 (b.End3 cells [1]; 10 days hyperglycaemia): 4 nM
4-(3-sulfanylidene-3H-1,2- dithiol-5-yl)phenyl) 10-(4,5-dimethoxy-2- methyl-2,6-dioxocyclohexa- 1,4-dien-1-yl)decanoate [Example 2] | – | – | 10 | preserved | can be inhibited | CC50 (b.End3 cells [3]): 130 µM; fragmentation of the mitochondrial network caused by ageing (C. elegans; FIG. 1): inhibited; IC50 (b.End3 cells [1]; 10 days hyperglycaemia): 6 nM
Oc1ccc(-c2cc(=S)ss2)cc1 [ADTOH, 5-(4-hydroxyphenyl) -3H-1,2-dithiole-3-thione] | – | – | – | not | not | –
CC1=C(CCCCCCCCCC(=O)Nc2ccc(C(N)=S)cc2)C(=O)c2ccccc2C1=O [Example 17, N-(4-carbamothioylphenyl)-10-(3-methyl-1,4-dioxo-1,4-dihydronaphthalen-2-yl)decanamide] | – | – | – | – | – | dysfunction of the mitochondria (loss of OCR) in senescent cells [5]: reversed
COC1=C(OC)C(=O)C(CCCCCCCCCCO)=C(C)C1=O [idebenone] | – | – | – | not | not | –
COC1=C(OC)C(=O)C(CCCCCCCCCC(=O)Oc2ccc(-c3cc(=O)ss3)cc2)=C(C)C1=O [Example 3, 4-(3-oxo-3H-1,2-dithiol-5-yl)phenyl 10-(4,5-dimethoxy-2-methyl-3,6-dioxocyclohexa-1,4-dien-1-yl)decanonate] | 76 | 5 | – | – | – | –
COC1=C(OC)C(=O)C(CCCCCCCCCCOC(=O)COc2ccc(-c3cc(=S)ss3)cc2)=C(C)C1=O [Example 1, 10-(4,5-dimethoxy-2-methyl-3,6-dioxocyclohexa-1,4-dien-1-yl)decyl 2-[4-(3-sulfanylidene-3H-1,2-dithiol-5-yl)phenoxy]acetate] | 147 | 0.4 | 6.5 | – | – | –
